Test systems include DMS 114 small cell lung; KM20L2 colon; DLD-1 colon; MDA-MB-435; T-47D breast; MDA-N; SNB-78 CNS; DMS 273 small cell lung.
Common to all, as to experiment: NCI tumour cell line growth inhibition, 48 h

SMILES strings stand for the structures.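 All cell lines were grown in 96-well plates and treated with compound for 48 hours. Here, GI50 denotes the concentration required for 50% inhibition of growth. The concentration for full growth arrest is given as TGI.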

GI50 and TGI data for 26 molecules are collected here from PubChem BioAssay (NCI).

Take `O=C([O-])CCc1ccccc1.O=C([O-])CCc1ccccc1.O=C([O-])CCc1ccccc1.O=C([O-])CCc1ccccc1.[Mo+2].[Mo+2]`: the GI50 in the experiment with DMS 114 small cell lung, in the experiment with KM20L2 colon and with DLD-1 colon was more than 100 µM each time. In addition, the TGI in the experiment on DMS 114 small cell lung, with KM20L2 colon and with DLD-1 colon was more than 100 µM in each case.

As to `CC(C)OCc1cc(CN2CCN(c3cccc(Cl)c3)CC2)c(O)c2ncccc12`, in the experiment with MDA-MB-435, the GI50 is 0.923 µM and the TGI was 11.4 µM. In addition, in the experiment on T-47D breast, the GI50 was 0.556 µM and the TGI was 18.4 µM.

`CCC(C)CC(C)C(=O)c1c(O)ccn(O)c1=O` (stereo not drawn): in the experiment with MDA-MB-435, the GI50 was 1.87 µM and the TGI was more than 100 µM. Besides, in the experiment with T-47D breast, the GI50 was 4.12 µM and the TGI was 76.9 µM.

As to `O=[N+]([O-])/C=C/c1cc2ccc3ccccc3c2[nH]1`, the TGI stood at 4.79 µM in the experiment on MDA-N, 3.73 µM in the experiment on MDA-MB-435 and 3.89 µM in the experiment on T-47D breast.

For `COc1cc2c3c(n(CCCN4CCCNCC4)c(=O)c2cc1OC)-c1cc2c(cc1C3=O)OCO2`, in the experiment on MDA-MB-435, the GI50 is 2.58 µM and the TGI is 13.7 µM. In addition, in the experiment with T-47D breast, the GI50 was 0.984 µM and the TGI was 7.98 µM.

Take `Cc1cc(C(O)(c2ccc(Nc3ccccc3)cc2)c2ccc(Nc3ccc(S(=O)(=O)O)cc3)cc2)ccc1N` (stereo not drawn): the GI50 in the experiment with MDA-MB-435 is 1.28 µM; in the experiment on T-47D breast, 0.609 µM. The TGI in the experiment with MDA-MB-435 came to 2.69 µM; with T-47D breast, 3.18 µM.

Consider `O=C1c2cccnc2C(=O)c2c1c(C(=O)OCCc1ccccn1)c1ccccn21`, for which, in the experiment with MDA-MB-435, the GI50 was 0.0524 µM and the TGI worked out at 3.72 µM. Also, in the experiment on T-47D breast, the GI50 was 1.71 µM and the TGI came to 8.39 µM.

Take `NCCCNc1nc2ccc(Cl)cc2c2c(=O)c3cc(F)ccc3sc12`: in the experiment on MDA-MB-435, the GI50 was 1.93 µM and the TGI was found to be 4.2 µM. Further, in the experiment with T-47D breast, the GI50 is 9.65 µM and the TGI was found to be 34.3 µM.

`Oc1ccc(Cc2ccc(O)c(C3CC(c4ccc(Cl)cc4)=NN3)c2)cc1C1CC(c2ccc(Cl)cc2)=NN1` (stereo not drawn): the GI50 was 3.23 µM with MDA-MB-435 and 3.15 µM with T-47D breast. The results for the TGI in the experiment with MDA-MB-435 and in the experiment on T-47D breast were 20.2 µM and more than 39.7 µM, respectively.

`CCCCCCc1cc2cc(-c3csc(/C=C/c4ccccc4)n3)c(=O)oc2cc1O`: in the experiment with MDA-MB-435, the GI50 is 12.9 µM and the TGI came out at 27.2 µM. Besides, in the experiment on T-47D breast, the GI50 is 13.9 µM and the TGI was more than 100 µM.

With `COc1ccc(C2CC(c3ccc4ccccc4c3)=NN2c2nc(O)c(C3=c4cc(OC)ccc4=NC3=O)s2)cc1` (stereo not drawn), in the experiment on MDA-MB-435, the GI50 is 0.0351 µM and the TGI stood at 0.134 µM. In the experiment with T-47D breast, the GI50 was 0.0401 µM and the TGI worked out at 0.184 µM.

`O=C(O)c1cn(C2CC2)c2cc(N3CCN(C(=O)Nc4nc(-c5ccc(Br)cc5)cs4)CC3)c(F)cc2c1=O`: in the experiment on MDA-MB-435, the GI50 is 1.88 µM and the TGI was more than 100 µM. Also, in the experiment with T-47D breast, the GI50 was 1.57 µM and the TGI is more than 100 µM.

With `CCOc1cc(/C=C/C(=O)C(C(=O)/C=C/c2ccc(OC(=O)CNc3nnc(C)s3)c(OCC)c2)C(=O)CNc2nnc(C)s2)ccc1OC(=O)CNc1nnc(C)s1`, the GI50 in the experiment on MDA-MB-435 is 1.53 µM; in the experiment on T-47D breast it was 3.4 µM. Moreover, the TGI with MDA-MB-435 worked out at 8.7 µM; in the experiment with T-47D breast, 35.6 µM.

In the case of `O=C(/C=C/c1nnc2n(Cc3ccccc3)c(=O)c3c4c(sc3n12)CCCC4)c1ccccc1`, in the experiment with MDA-MB-435, the GI50 was 3.54 µM.

As for `O=C1C(=C([O-])c2ccccc2)C(=O)c2ccccc21.O=C1C(=C([O-])c2ccccc2)C(=O)c2ccccc21.[Co+2]`, the GI50 with KM20L2 colon and in the experiment with DLD-1 colon was more than 100 µM in each case. In addition, the TGI in the experiment with KM20L2 colon and with DLD-1 colon was more than 100 µM in each case.

As for `Cn1c(=O)c2[nH]c(CCCc3ccc([N+](=O)[O-])cc3)nc2n(C)c1=O`, the TGI in the experiment with MDA-N, in the experiment with MDA-MB-435 and in the experiment on T-47D breast was more than 100 µM throughout.

Consider `CS(=N)(=O)CCC(N)P(=O)(O)O` (stereo not drawn), for which the TGI with MDA-N, in the experiment with MDA-MB-435 and in the experiment on T-47D breast was more than 100 µM in each case.

For `O=C(NS(=O)(=O)c1ccc(NC[C@H]2COCCO2)c([N+](=O)[O-])c1)c1ccc(N2CCN(CC3=C(c4ccc(Cl)cc4)CC4(CCC4)CC3)CC2)cc1Oc1cnc2[nH]ccc2c1`, in the experiment on T-47D breast, the GI50 is 2.24 µM and the TGI came to 8.99 µM.

Turning to `O=C(Cc1ccc(Nc2ccnc(C(F)(F)F)c2)cc1)N/N=C/c1ccccc1O`, the GI50 was 3.67 µM with MDA-MB-435 and 3.26 µM in the experiment on T-47D breast. Further, the TGI was more than 77.5 µM in the experiment with MDA-MB-435 and 17.7 µM in the experiment on T-47D breast.

For the molecule `CCN1C(=O)N(CC)C2C1NC(=S)N2/N=C/C=C/c1ccccc1OC` (stereo not drawn), the GI50 in the experiment on MDA-MB-435 was 0.0189 µM; with T-47D breast, 34.6 µM. The TGI in the experiment with MDA-MB-435 was 0.0539 µM; in the experiment on T-47D breast, more than 100 µM.

For `Cn1c2cc([N+](=O)[O-])ccc2c(=O)c2c(O)cc3c(c21)C=CC(C)(C)O3`, the TGI with KM20L2 colon, in the experiment on DLD-1 colon, in the experiment with SNB-78 CNS and in the experiment on DMS 273 small cell lung was more than 100 µM throughout.

`Brc1ccc(Nc2nc3ccccc3nc2Nc2ccc(Br)cc2)cc1`: in the experiment with MDA-MB-435, the GI50 is 1.51 µM and the TGI is 4.9 µM. Moreover, in the experiment on T-47D breast, the GI50 is 0.936 µM and the TGI stood at 7.09 µM.

As to `N#Cc1c2ccccc2c2nnc3ccc(C(F)(F)F)cc3n12`, in the experiment on MDA-MB-435, the GI50 is 32.5 µM and the TGI was more than 100 µM. In the experiment on T-47D breast, the GI50 is more than 100 µM and the TGI is more than 100 µM.

In the case of `CCN(CC)CC(O)COc1c(Br)c(Br)c(Br)c2c1OC(C)(C)C2` (stereo not drawn), in the experiment on MDA-MB-435, the GI50 was 2.66 µM and the TGI was 7.31 µM. Moreover, in the experiment on T-47D breast, the GI50 is 10.6 µM and the TGI was determined as 41 µM.

In the case of `FC(F)(F)c1cc(-c2ncn(/C=C\c3nnco3)n2)cc(C(F)(F)F)c1`, in the experiment on MDA-MB-435, the GI50 is 0.0581 µM and the TGI worked out at 1.51 µM. Further, in the experiment on T-47D breast, the GI50 was 0.0567 µM and the TGI is more than 41.5 µM.

Regarding `O=c1[nH]c2ccccc2n2cc3ccccc3c12`, the GI50 was 16.3 µM with MDA-MB-435 and 7.45 µM with T-47D breast. Besides, the results for the TGI in the experiment with MDA-MB-435 and with T-47D breast were 31 µM and more than 100 µM, respectively.
